From ChEMBL document CHEMBL1145677, “In Vitro Action of ent -Manoyl Oxides against Leishmania donovani” (1997) come the findings set out here.

Common to all, as to type: functional
Assay [1] relates to Leishmania donovani. As to the kind of experiment: Antileishmanial activity against Leishmania donovani LCR-L133 amastigotes at 1 ug/ml after 24 hrs relative to control.
Assay [2] concerns Leishmania donovani. Nature of the assay: Antileishmanial activity against Leishmania donovani LCR-L133 amastigotes at 1 ug/ml after 72 hrs relative to control.
Assay [3] concerns Leishmania donovani. As to the kind of experiment: Antileishmanial activity against Leishmania donovani LCR-L133 amastigotes at 100 ug/ml after 24 hrs relative to control.
Assay [4] concerns Leishmania donovani. Nature of the assay: Antileishmanial activity against Leishmania donovani LCR-L133 promastigotes at 10 […] after 72 hrs relative to control.
Assay [5] concerns Leishmania donovani. As to the kind of experiment: Antileishmanial activity against Leishmania donovani LCR-L133 promastigotes at 1 […] after 72 hrs relative to control.
Assay [6] deals with Leishmania donovani. As to the kind of experiment: Antileishmanial activity against Leishmania donovani LCR-L133 amastigotes at 10 ug/ml after 24 hrs relative to control.
Assay [7] relates to Leishmania donovani. Nature of the assay: Antileishmanial activity against Leishmania donovani LCR-L133 amastigotes at 10 ug/ml after 48 hrs relative to control.
The subject of assay [8] is Leishmania donovani. Nature of the assay: Antileishmanial activity against Leishmania donovani LCR-L133 promastigotes at 10 […] after 24 hrs relative to control.
For assay [9], the system named is Leishmania donovani. As to the kind of experiment: Antileishmanial activity against Leishmania donovani LCR-L133 promastigotes at 100 […] after 24 hrs relative to control.
The subject of assay [10] is Leishmania donovani. Nature of the assay: Antileishmanial activity against Leishmania donovani LCR-L133 amastigotes at 1 ug/ml after 48 hrs relative to control.
The subject of assay [11] is Leishmania donovani. As to the kind of experiment: Antileishmanial activity against Leishmania donovani LCR-L133 promastigotes at 100 […] after 48 hrs relative to control.
The test system of assay [12] is Leishmania donovani. As to the kind of experiment: Antileishmanial activity against Leishmania donovani LCR-L133 promastigotes at 100 […] after 72 hrs relative to control.
The subject of assay [13] is Leishmania donovani. Nature of the assay: Antileishmanial activity against Leishmania donovani LCR-L133 amastigotes at 100 ug/ml after 72 hrs relative to control.
The subject of assay [14] is Leishmania donovani. Nature of the assay: Antileishmanial activity against Leishmania donovani LCR-L133 amastigotes at 100 ug/ml after 48 hrs relative to control.
Assay [15] has as its system Leishmania donovani. As to the kind of experiment: Antileishmanial activity against Leishmania donovani LCR-L133 promastigotes at 1 […] after 24 hrs relative to control.
Assay [16] deals with Leishmania donovani. Nature of the assay: Antileishmanial activity against Leishmania donovani LCR-L133 promastigotes at 10 […] after 48 hrs relative to control.
Assay [17] deals with Leishmania donovani. Nature of the assay: Antileishmanial activity against Leishmania donovani LCR-L133 promastigotes at 1 […] after 48 hrs relative to control.
Assay [18] deals with Leishmania donovani. As to the kind of experiment: Antileishmanial activity against Leishmania donovani LCR-L133 amastigotes at 10 ug/ml after 72 hrs relative to control.

Consider `C=C[C@]1(C)O[C@@]2(C)C[C@H](O)[C@@H]3C(C)(C)[C@H](O)CC[C@@]3(C)[C@@H]2C[C@@H]1O`, for which the Activity in the assay on Leishmania donovani [1] came out at 0%; in the assay with Leishmania donovani [2] it was 0%; with Leishmania donovani [3], 35%; in the assay with Leishmania donovani [4] it was 0%; in the assay on Leishmania donovani [5], 0%; with Leishmania donovani [6], 7%. Moreover, the Activity is 11% in the assay with Leishmania donovani [7]; 0% with Leishmania donovani [8]; 0% in the assay with Leishmania donovani [9]; 0% in the assay on Leishmania donovani [10]; 0% in the assay on Leishmania donovani [11]; 0% in the assay on Leishmania donovani [12]. For the same compound, the Activity is 50% with Leishmania donovani [13]; 46% with Leishmania donovani [14]; 0% in the assay on Leishmania donovani [15]; 0% in the assay with Leishmania donovani [16]; 0% with Leishmania donovani [17]; 16% in the assay with Leishmania donovani [18].

Regarding `C=C[C@@]1(C)CC[C@H]2[C@]3(C)CCC(=O)C(C)(C)[C@H]3CC[C@]2(C)O1`, the Activity came to 0% in the assay with Leishmania donovani [1]; 10% in the assay with Leishmania donovani [2]; 20% with Leishmania donovani [3]; 0% with Leishmania donovani [4]; 0% in the assay on Leishmania donovani [5]; 7% with Leishmania donovani [6]. For the same compound, the Activity in the assay on Leishmania donovani [7] was 17%; with Leishmania donovani [8] it was 0%; with Leishmania donovani [9], 51%; with Leishmania donovani [10], 10%; in the assay on Leishmania donovani [11], 86%; in the assay on Leishmania donovani [12], 80%. The Activity in the assay with Leishmania donovani [13] was found to be 56%; in the assay with Leishmania donovani [14], 48%; in the assay on Leishmania donovani [15] it was 0%; in the assay with Leishmania donovani [16], 0%; in the assay on Leishmania donovani [17], 0%; in the assay with Leishmania donovani [18], 25%.
